Experimental findings from US5159085A, “2-anilino phenylacetic acid derivatives as inhibitors of PLA2 and lipoxygenase” (American Home Products Corporation, priority 1991, dated 1992) are described below.

The IC50 is the concentration needed to halve the response being measured. Higher therefore signals weaker potency. One may read the ED50 as the midpoint of the dose-response relation.

In experiment [1] the target is T1, human synovial fluid PLA2 (Homo sapiens, UniProt P14555).
T1 construct: Purified human synovial fluid; from tissue; host or cells: human synovial fluid
T1 sequence (P14555 21-144): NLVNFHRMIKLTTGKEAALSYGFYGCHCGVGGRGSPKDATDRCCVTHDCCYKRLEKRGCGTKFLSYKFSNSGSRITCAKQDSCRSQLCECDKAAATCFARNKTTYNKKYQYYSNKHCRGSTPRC
In words: In vitro isolated phospholipase A2 assay, human synovial fluid PLA2. The class given is biochemical. As to the method: The compounds of the invention are tested in an in vitro isolated phospholipase A2 assay to determine the ability of the test compounds to inhibit the release of arachidonic acid from an arachidonic acid-containing substrate by the action of phospholipase A2 enzyme from human and non-human sources.
(§1) This assay is carried out as follows:
Into a 15 mL polypropylene tube are added the following:
*pre-incubate at room temperature 30 min prior to substrate addition.
^5 Stock 10 mM prepared in dimethyl sulfoxide. Make 1:2 dilution with
dimethyl sulfoxide and add 1 μ L to 100 μL assay tube.
^6 Two human PLA2 enzymes are used:
b) Purified human synovial fluid.
Incubate the 100 μL reaction mixture for 10 minutes at 37° C. in a shaking water bath. The reaction is terminated by the addition of 2 mL tetrahydrofuran, followed by vortexing. NH2 columns (100 μg/mL--Analytichem International) are conditioned with 0.5 mL tetrahydrofuran followed by 0.5 mL tetrahydrofuran/water (2 mL:0.1 mL, v/v).
The sample is loaded onto the columns and slowly drawn through them. The hydrolyzed arachidonic acid retained in the columns is eluted therefrom with 1 mL tetrahydrofuran/glacial acetic acid (2%). The arachidonic acid is transferred to scintillation vials and quantitated by β-counting analysis. A "total counts" sample is prepared by pipetting 25 μL ^3 H-arachidonate E. coli directly into a scintillation vial to which is added 1 mL tetrahydrofuran. 10 mL aquasol (scintillation cocktail) is added to all samples. [formula]

For experiment [2], the system named is paw edema induced by exogenous PLA2 (snake, A. piscivorus piscivorus). As to the kind of experiment: In vivo PLA2 murine paw edema assay. On the set-up: species or system mouse (male CD-1). As to the method: The ability of the compounds of the invention to inhibit paw edema induced by the exogenous administration of PLA2 is measured in the in vivo PLA2 murine paw edema assay.
The assay is carried out as follows:
Non-fasted, male CD-1 mice (8 weeks old; 31-36 grams) are placed in plastic boxes in groups of six. The right hind paw volume is measured using mercury plethysmography (zero time). […] A solution of purified PLA2, from the diamond back cotton mouth snake (A. piscivorus piscivorus) is prepared in saline at a concentration of 6 μg/ml. Fifty (50) μl (0.3 μg) of this PLA2 solution is injected subcutaneously into the right hind paw with a plastic 1 ml plastic syringe (27 gauge, 1" needle). Paw volume of the injected paw is measured again at 10 minutes, 30 minutes and 60 minutes after PLA2 injection. Animals are euthanized with CO2 at the completion of the study.
The paw edema is calculated by subtracting the zero time volume from the volume recorded at each time period. Mean paw edema for each treatment group is then calculated and expressed as (μl±S.E.). Drug effects are expressed as a percent change from control (vehicle) values. Statistical significance is determined by a one-way analysis of variance with LSD comparison to control (p<0.05). ED50 's are determined using repression analysis.

For experiment [3], the system named is 6-keto-PGF1α /TxB2. As to the kind of experiment: In vivo murine zymosan peritonitis assay, 6-keto-PGF1α (cyclooxygenase pathway). Also noted: species or system mouse (male CD-1). As to the method: The compounds of the invention are evaluated for their ability to inhibit the lipoxygenase and/or cyclooxygenase pathways of arachidonic acid metabolism in the in vivo murine zymosan peritonitis assay.
as §1
Male CD-1 mice (8 weeks old) are placed in plastic boxes in groups of six. Animals are injected with 1 ml i.p. of either 1% zymosan in pyrogen free 0.9% saline or saline (unstimulated control). Compounds are dosed orally 1 hour prior to zymosan injection. Twenty minutes after zymosan injection, the mice are asphyxiated by CO2 inhalation and the peritoneal cavity is lavaged with 2 ml ice cold Hanks Balanced Salt Solution (HBSS) without CaCl2, MgSO4 ·7H2 O and MgCL2 ·6H2 O. Peritoneal lavage fluid from each mouse is removed by syringe and placed in 5 ml plastic test tubes put on ice and volume is noted. Preparation of samples for evaluation by ELISA is as follows: Samples are centrifuged at 800×g for 15 minutes; 1 ml of the supernatant is added to 8 ml ice cold methanol and kept at -70° C. overnight to precipitate protein; and samples are then centrifuged at 800×g for 15 minutes, followed by a drying procedure in a Savant speed vac concentrator. The samples are reconstituted with 1 ml ice cold ELISA buffer and stored at -70° C. until assayed. The assay for eicosanoids (LTC4 and 6-keto-PGF1α) is performed according to conventional ELISA procedures.
Compounds to be tested orally are suspended in 0.5% Tween 80. Compounds to be tested intraperitoneally are suspended in 0.5% methylcellulose in 0.9% saline.
The total metabolite level in lavage fluid/mouse is calculated and the significance is determined by a one-way analysis of variance with LSD comparisons to control (p≤0.05). Drug effects are expressed as a percent change from control values.

Where two headings read alike, the source gives them in different places.

As for `O=C(O)Cc1cc(OCc2ccc3ccccc3n2)ccc1Nc1c(Cl)cccc1Cl` [Example 2, 2-[(2,6-Dichlorophenyl)amino]-5-(2-quinolylmethoxy)benzene acetic acid], the inhibition at 10 µM in experiment [1] (10 μM, Table IV, read-out: % Inhibition at a concentration of 10 μM, HSF) came to 47.6%. Besides, the IC50 in experiment [1] (human synovial fluid) came to 6.3 µM. Moreover, in experiment [2] (10 mg/kg i.v.), the “% Change in Edema 10 min” value was -45%, the “% Change in Edema 30 min” value is -37% and the “% Change in Edema 60 min” value is recorded as -32%. In experiment [2] (100 mg/kg p.o.), the “% Change in Edema 10 min” value is on record as -52%, the “% Change in Edema 30 min” value was -48% and the “% Change in Edema 60 min” value is on record as -28%. The “% Inhibition 6-keto-PGF” value in experiment [3] (50 mg/kg p.o., negative values denote potentiation) is listed as -25%. Besides, in experiment [3] (100 mg/kg p.o.), the “% Inhibition 6-keto-PGF” value worked out at 65%.

Turning to `O=C(O)Cc1ccccc1Nc1c(Cl)cccc1Cl` [diclofenac, reference compound], the inhibition at 10 µM in experiment [1] (read-out: % Inhibition at 10 μM HSF) came to 0%. Besides, in experiment [2] (10 mg/kg i.v.), the “% Change in Edema 10 min” value is listed as -19%, the “% Change in Edema 30 min” value is -15% and the “% Change in Edema 60 min” value is on record as -1%. Besides, in experiment [2] (100 mg/kg p.o.), the “% Change in Edema 10 min” value was -28%, the “% Change in Edema 30 min” value is -38% and the “% Change in Edema 60 min” value is on record as -15%. For the same compound, the median effective dose (ED50) in experiment [3] (Mus musculus, po, read-out: ED50 6-keto-PGF) worked out at 0.77 mg/kg.
